Source: patent publication US7947727B2, “Compounds” (GlaxoGroupLimited, priority 2006, dated 2011)

Test system: NFκB activity
Assay: Glucocorticoid Mediated Transrepression of NFκB Activity (A549 ELAM promoter alkaline phosphatase reporter)
Format: cell-based
Settings: Human A549 lung epithelial cells, 3 ng/ml human recombinant TNFα, 16 hours, read-out: pEC50, transrepression of NFκB activity (converted)
Excerpt: Human A549 lung epithelial cells were engineered to contain a secreted placental alkaline phosphatase gene under the control of the distal region of the NFκB dependent ELAM promoter as previously described in Ray, K. P., Farrow, S., Daly, M., Talabot, F. and Searle, N. “Induction of the E-selectin promoter by interleukin 1 and tumour necrosis factor alpha, and inhibition by glucocorticoids” Biochemical Journal (1997) 328: 707-15.
Compounds were solvated and diluted in DMSO, and transferred directly into assay plates such that the final concentration of DMSO was 0.7%. Following the addition of cells (40K per well), plates were incubated for 1 hour prior to the addition of 3 ng/ml human recombinant TNFα. Following continued incubation for 16 hours, alkaline phosphatase activity was determined by measuring the change in optical density at 405 nm with time following the addition of 0.7 volumes of assay buffer (1 mg/ml p-nitrophenylphosphate dissolved in 1M diethanolamine, 0.28M NaCl, 0.5 mM MgCl2). Dose response curves were constructed from which EC50 values were estimated.

Question: CCN(CC(O)(CNc1cccc2c1cnn2-c1ccc(F)cc1)C(F)(F)F)C(=O)c1ccccc1F (single isomer, unassigned) [Example 7A, N-Ethyl-2-fluoro-N-[3,3,3-trifluoro-2-({[1-(4-fluorophenyl)-1H-indazol-4-yl]amino}methyl)-2-hydroxypropyl]benzamide] was tested. Which EC50 did it give?
Answer: Its EC50 is ≤ 10 nM.

Question: CCN(CC(O)(CNc1cccc2c1cnn2-c1ccc(F)cc1)C(F)(F)F)C(=O)c1ccccc1C (single isomer, unassigned) [Example 6A, N-Ethyl-2-methyl-N-[3,3,3-trifluoro-2-({[1-(4-fluorophenyl)-1H-indazol-4-yl]amino}methyl)-2-hydroxypropyl]benzamide] was tested. Which EC50 did it give?
Answer: Its EC50 is ≤ 10 nM.

Question: With CCN(CC(O)(CNc1cccc2c1cnn2-c1ccccc1)C(F)(F)F)C(=O)c1ccccc1F (single isomer, unassigned) [Example 3A, N-Ethyl-2-fluoro-N-(3,3,3-trifluoro-2-hydroxy-2-{[(1-phenyl-1H-indazol-4-yl)amino]methyl}propyl)benzamide] as the compound, how does the EC50 read?
Answer: The EC50 was ≤ 10 nM.

Question: CCN(CC(O)(CNc1cccc2c1cnn2-c1ccc(F)cc1)C(F)(F)F)C(=O)c1ccccc1F (stereo not shown) [Example 7, N-Ethyl-2-fluoro-N-[3,3,3-trifluoro-2-({[1-(4-fluorophenyl)-1H-indazol-4-yl]amino}methyl)-2-hydroxypropyl]benzamide] was tested. Which EC50 did it give?
Answer: Its EC50 is ≤ 10 nM.
